This is an account of results in ChEMBL document CHEMBL2202997, “Ex vivo study of the vasorelaxant activity induced by phenanthrene derivatives isolated from Maxillaria densa” (J Nat Prod, 2012).

Activity calls are given as the source filed them. No cut-off for these calls is given here.

In assay [1] the test system is Aorta. Nature of the assay: Vasorelaxant activity in Wistar rat aorta with endothelium assessed as inhibition of norepinephrine-induced contraction. The class given is functional, tissue-based.
Assay [2] concerns Aorta. Nature of the assay: Vasorelaxant activity in Wistar rat aorta with endothelium assessed as inhibition of norepinephrine-induced contraction relative to control. It is filed as functional.
The test system of assay [3] is Aorta. Nature of the assay: Vasorelaxant activity in Wistar rat aorta without endothelium assessed as inhibition of norepinephrine-induced contraction. The class given is functional, tissue-based.
Assay [4] relates to Aorta. Kind of assay: Vasorelaxant activity in Wistar rat aorta without endothelium assessed as inhibition of norepinephrine-induced contraction relative to control. The class given is functional.
The test system of assay [5] is Aorta. Nature of the assay: Vasorelaxant activity in Wistar rat endothelium-denuded aorta assessed as inhibition of FPL-64176-induced contraction at 11 to 63 uM. The class given is functional, tissue-based.
Assay [6] relates to Aorta. Kind of assay: Vasorelaxant activity in Wistar rat aorta without endothelium assessed as inhibition of extracellular Ca2+-induced contractions activated by potassium chloride-induced contraction. The class given is functional, tissue-based.
The subject of assay [7] is Aorta. Kind of assay: Induction of relaxation in Wistar rat endothelium-denuded aorta in presence of potassium channel blocker TEA. It is filed as functional, tissue-based.
Assay [8] deals with Aorta. Nature of the assay: Vasorelaxant activity in Wistar rat endothelium-denude aorta assessed as inhibition of norepinephrine-induced contraction in presence of soluble guanylyl cyclase inhibitor ODQ. The class given is functional, tissue-based.
The subject of assay [9] is Aorta. Nature of the assay: Induction of relaxation in Wistar rat endothelium-denuded aorta in presence of potassium channel blocker glibenclamide. It is filed as functional, tissue-based.
Assay [10] concerns Aorta. Kind of assay: Vasorelaxant activity in Wistar rat aorta without endothelium assessed as inhibition of extracellular Ca2+-induced contractions activated by potassium chloride-induced contraction relative to control. It is filed as functional.
Assay [11] deals with Aorta. Kind of assay: Vasorelaxant activity in Wistar rat endothelium-denuded aorta assessed as inhibition of CaCl2-induced contraction. The class given is functional, tissue-based.

Broadly, the EC50 is the concentration needed to bring the measured effect to its halfway point.

For `C[N+](C)(C)CCOC(N)=O.[Cl-]` [CARBACHOL], the 50% effective concentration (EC50) with Aorta [1] came out at 0.41 µM. Besides, the Efficacy in the assay on Aorta [2] came to 74.06%.
With `COc1c(O)cc2c(c1OC)-c1ccc(O)cc1CC2` [ERIANTHRIDIN], the concentration for a half-maximal effect (EC50) was found to be 167 µM in the assay on Aorta [3] and 142 µM in the assay with Aorta [1]. For the same compound, the inhibition entry in the assay on Aorta [3] and in the assay with Aorta [1] was “Dose-dependent effect” in each case. The values for the Efficacy with Aorta [4] and in the assay with Aorta [2] were 82.4% and 85.47%, respectively.
`COc1c(O)cc2cc(OC)c3cccc(O)c3c2c1OC` [FIMBRIOL A]: the 50% effective concentration (EC50) in the assay on Aorta [3] came out at 288 µM; in the assay on Aorta [1], 234 µM. Besides, the inhibition entry in the assay with Aorta [3] and in the assay with Aorta [1] was “Dose-dependent effect” in each case. Also, the figures for the Efficacy with Aorta [4] and in the assay with Aorta [2] were 73.86% and 83.05%, respectively.
Turning to `COc1c(O)cc2cc(OC)c3cc(O)ccc3c2c1OC` [GYMNOPUSIN], the EC50 in the assay on Aorta [3] was 70.2 µM; with Aorta [6], 119 µM; in the assay with Aorta [1], 63 µM. Also, the inhibition entry with Aorta [3], with Aorta [5] and in the assay on Aorta [1] was “Dose-dependent effect” in each case. Besides, the result in the assay on Aorta [7] and with Aorta [9] was inactive. In addition, the inhibition result in the assay with Aorta [8] and in the assay on Aorta [11] was “Active” throughout. Also, the Efficacy turned out to be 98.18% in the assay on Aorta [4], 94% in the assay on Aorta [2] and 71.3% in the assay with Aorta [10].
Consider `COC(=O)C1=C(C)NC(C)=C(C(=O)OC)C1c1ccccc1[N+](=O)[O-]` [NIFEDIPINE], for which the EC50 with Aorta [3] came to 4.31 µM. The Efficacy with Aorta [4] amounted to 97%.
